In general, IC50 refers to the concentration that gives 50% inhibition. Read a high IC50 as a need for much substance.

For assay [1], the target named is T1, humanized rat COMT (hrCOMT), catechol-O-methyltransferase (Rattus norvegicus, UniProt P22734, M134I/Y138C).
T1 sequence (P22734 44-264 M134I/Y138C): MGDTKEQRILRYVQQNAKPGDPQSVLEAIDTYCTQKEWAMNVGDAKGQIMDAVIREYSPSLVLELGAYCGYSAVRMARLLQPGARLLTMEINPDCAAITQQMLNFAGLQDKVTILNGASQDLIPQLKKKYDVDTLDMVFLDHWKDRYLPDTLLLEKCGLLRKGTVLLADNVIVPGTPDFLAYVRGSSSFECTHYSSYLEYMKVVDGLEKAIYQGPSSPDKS
Description: co-crystal structure ([…]) at […] Å; IC50 from activity-based high-throughput screen. It counts as biochemical.

For assay [2], the target named is T2, rat COMT (rCOMT), catechol-O-methyltransferase (Rattus norvegicus, UniProt P22734).
T2 construct: soluble N-terminally truncated form, lacks the N-terminal 43 residues
T2 sequence (P22734 44-264): T1 sequence (P22734 44-264 M134I/Y138C) with I91M, C95Y
Kind of assay: co-crystal structures ([…]), semi-holo, and ([…]), with tolcapone and Mg2+. The format is binding.

Where a chain is given by its changes, count along the chain named.

In assay [1], `N=C(N)c1ccc(NC(=O)Nc2cccc(CN)c2)cc1` [4-[3-(3-aminomethylphenyl)-ureido]-benzamidine] returned an IC50 of 4.4 µM.

With `Nc1ncnc2c1ncn2[C@@H]1O[C@H](C[C@@H](N)CC[C@H](N)C(=O)O)[C@@H](O)[C@H]1O` [sinefungin], the “co-crystal structures (7), semi-holo, and (8), with tolcapone and Mg2+” value in assay [2] is listed as “Co-crystal structure with the SAM analogue sinefungin. Semi-holo form”.

The values above are taken from article PMC4118827, “Mapping the conformational space accessible to catechol-O-methyltransferase” (Acta Crystallographica Section D: Biological Crystallography, 2014).
